Data: patent US8236789B2, “1-adamantyl azetidin-2-one derivatives and drugs containing same” (Kowa Company, Ltd., priority 2008, dated 2012)

Legend:
Format in all cases: biochemical
[1] = target: T1, human 11β-HSD1 (Homo sapiens, UniProt P28845); assay: Enzyme inhibitory activity assay, lysate of HEK293 cells stably expressing human 11β-HSD1, cortisol by competitive ELISA; details: Table 1; cell lysate, 100 nmol/L cortisone, NADPH, 37° C. 1 hour; read-out: in vitro assay (IC50 uM) h HSD1
T1 construct: expressed in transfected cells
Method: (§1) 1. Human 11β-HSD1-, Human 11β-HSD2- and Mouse 11β-HSD1-Gene Clonings and Establishment of Stably Expressing Cells
(§2) Human 11β-HSD1- and human 11β-HSD2-expressing vectors were transfected into human kidney-derived cell line, HEK293 cells, using a transfection reagent, jet PEI (Funakoshi). Mouse 11β-HSD1 was transfected to Chinese hamster ovary-derived cell line, CHO-K1 cells. Selection was conducted with 200-400 μg/mL of zeocine (Invitrogen) to provide stably expressing-cell clones. The stably expressing cells were suspended in buffer solution A (20 mmol/L Tris-HCl, pH 7.4, 250 mmol/L sucrose, 1 mmol/L EGTA, 1 mmol/L EDTA, 1 mmol/L MgCl2), sonicated, and then stored at −80° C.
(§3) 2. Assay of Enzyme Inhibitory Activity
(§4) An enzymatic reaction was conducted using a polystyrene 96-well plate. Each well was added with 1 μL of a test agent dissolved in DMSO and then diluted (0.003 to 3 mmol/L), and further added with 10 μL of cell lysate diluted to a concentration of 0.1 mg/mL to 0.4 mg/mL. Next, 90 μL of buffer solution A containing substrate (100 nmol/L cortisone or cortisol) and coenzyme (400 μmol/L NADPH or NAD+) was added and the mixture was incubated at 37° C. for 1 hour. The enzymatic reaction was stopped by treating at 95° C. for 3 minutes. Cortisol that was present in the reaction solution was determined by a competitive ELISA shown below.
(§5) Anti-rabbit IgG antibody (Chemi-con) diluted to 2 μg/mL with carbonate buffer solution (pH 9.6) was added in 100 μL each to a 96-well immuno plate (Nunc) and immobilized by an incubation at 4° C. overnight. […] After washed three times with buffer solution B containing 0.05% Tween 20, the plates were allowed to develop color by adding 100 μL, of color reagent, TMB (Moss). The color reaction was stopped by 25 μL of 1 mol/L sulfuric acid and the absorbance was determined at 450 nm with a microplate reader (Molecular Device, VersaMax).

[2] = target: T2, human 11β-HSD2 (Homo sapiens, UniProt P80365); assay: Enzyme inhibitory activity assay, lysate of HEK293 cells stably expressing human 11β-HSD2, cortisol by competitive ELISA; details: Table 1; cell lysate, 100 nmol/L cortisol, NAD+, 37° C. 1 hour; read-out: in vitro assay (IC50 uM) h HSD2
T2 construct: expressed in transfected cells
T2 sequence (P80365 1-405): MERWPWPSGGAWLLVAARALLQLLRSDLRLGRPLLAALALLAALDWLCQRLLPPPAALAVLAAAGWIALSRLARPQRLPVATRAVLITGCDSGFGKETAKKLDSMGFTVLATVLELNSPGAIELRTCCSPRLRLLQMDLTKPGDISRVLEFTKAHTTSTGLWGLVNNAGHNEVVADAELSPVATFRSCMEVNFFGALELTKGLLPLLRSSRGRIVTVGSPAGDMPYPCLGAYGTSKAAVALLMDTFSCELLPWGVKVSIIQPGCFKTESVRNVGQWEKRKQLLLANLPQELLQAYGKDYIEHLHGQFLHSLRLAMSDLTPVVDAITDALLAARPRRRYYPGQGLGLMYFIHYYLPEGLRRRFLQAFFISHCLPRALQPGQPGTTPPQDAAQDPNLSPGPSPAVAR
Method: as §1
Human 11β-HSD1-, human 11β-HSD2-, and mouse 11β-HSD1-gene clonings were conducted using as a template a reverse transcription product of human-liver RNA, human-kidney RNA (CELL APPLICATIONS), and mouse-kidney RNA respectively, by means of PCR cloning with reference to nucleotide sequences of Genbank Accession Nos. NM_005525, NM_000196, and NM_008288. The obtained PCR products of about 0.9 kbp, 1.2 kbp, and 0.9 kbp were subcloned into an expression vector pcDNA3.1+/Zeo (Invitrogen).
as §2, §3, §4
Anti-rabbit IgG antibody (Chemi-con) diluted to 2 μg/mL with carbonate buffer solution (pH 9.6) was added in 100 μL each to a 96-well immuno plate (Nunc) and immobilized by an incubation at 4° C. overnight. 50 μL of enzymatic reaction solution was put onto the plates, and further, anti-cortisol antibody (Cosmo Bio) and HRP-labeled cortisol (Cosmo Bio), diluted with buffer solution B (25 mmol/L Tris-HCl pH 7.4, 137 mmol/L NaCl, 2.68 mmol/L KCl), were added in 50 μL respectively and incubated at 4° C. overnight. After washed three times with buffer solution B containing 0.05% Tween 20, the plates were allowed to develop color by adding 100 μL, of color reagent, TMB (Moss). The color reaction was stopped by 25 μL of 1 mol/L sulfuric acid and the absorbance was determined at 450 nm with a microplate reader (Molecular Device, VersaMax).
The values of human 11β-HSD1, human 11β-HSD2, and mouse 11β-HSD1 activities were subtracted from 100, and the resultant values were regarded as the respective 11βHSD inhibition rates of example compounds. […] The comparison of human 11β-HSD1 and human 11β-HSD2 inhibiting activities is shown in Table 1, and the comparison of human 11β-HSD1 and mouse 11β-HSD1 inhibiting activities is shown in Table 2.

[3] = target: T3, mouse 11β-HSD1 (Mus musculus, UniProt P50172); assay: Enzyme inhibitory activity assay, lysate of CHO-K1 cells stably expressing mouse 11β-HSD1, cortisol by competitive ELISA; details: Table 2; cell lysate, 100 nmol/L cortisone, NADPH, 37° C. 1 hour; read-out: in vitro assay (IC50 uM) m HSD1
T3 construct: expressed in transfected cells
Method: as §1, §2, §3, §4, §5

T1 sequence (P28845 whole entry): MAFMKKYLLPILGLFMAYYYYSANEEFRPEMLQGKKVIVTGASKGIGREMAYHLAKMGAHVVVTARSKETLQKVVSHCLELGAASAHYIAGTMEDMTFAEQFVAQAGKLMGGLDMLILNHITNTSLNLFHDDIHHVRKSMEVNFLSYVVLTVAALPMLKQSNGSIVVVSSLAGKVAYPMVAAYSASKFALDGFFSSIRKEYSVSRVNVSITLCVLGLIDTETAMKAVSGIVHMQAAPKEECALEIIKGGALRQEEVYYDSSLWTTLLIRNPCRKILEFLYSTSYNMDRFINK
T3 sequence (P50172 whole entry): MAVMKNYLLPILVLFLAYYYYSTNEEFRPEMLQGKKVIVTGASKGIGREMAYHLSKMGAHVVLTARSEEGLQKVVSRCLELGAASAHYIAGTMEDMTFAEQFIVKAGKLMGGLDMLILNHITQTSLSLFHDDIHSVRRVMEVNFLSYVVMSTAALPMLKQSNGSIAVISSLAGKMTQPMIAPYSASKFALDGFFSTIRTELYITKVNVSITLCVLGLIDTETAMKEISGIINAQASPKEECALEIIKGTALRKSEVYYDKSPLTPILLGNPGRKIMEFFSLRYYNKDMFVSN

Row | Compound | IC50 [1] [µM] | IC50 [2] [µM] | IC50 [3] [µM]
1 | CC1(C)C(=O)N(C2C3CC4CC(C3)CC2C4)C1C1(c2ccccc2)CC1 (stereo not shown) [Example 71, 1-(adamantan-2-yl)-3,3-dimethyl-4-(1-phenylcyclopropyl)azetidin-2-one] | 0.059 | 4.3 | 0.0061
2 | CC(C)c1ccc(C2N(C3C4CC5CC(C4)CC3C5)C(=O)C2(C)C)cc1 (stereo not shown) [Example 37, 1-(adamantan-2-yl)-3,3-dimethyl-4-(4-isopropylphenyl)azetidin-2-one] | 0.026 | 14 | –
3 | CC1(C)C(=O)N(C2C3CC4CC(C3)CC2C4)C1c1ccc(F)c(F)c1 (stereo not shown) [Example 27, 1-(adamantan-2-yl)-3,3-dimethyl-4-(3,4-difluorophenyl)azetidin-2-one] | 0.017 | 8.8 | –
4 | COc1ccc(C2N(C3C4CC5CC(C4)CC3C5)C(=O)C2(C)C)c(C)c1 (stereo not shown) [Example 56, 1-(adamantan-2-yl)-3,3-dimethyl-4-(4-methoxy-2-methylphenyl)azetidin-2-one] | 0.0079 | > 30 | 0.46
5 | CC1(C)C(=O)N(C2C3CC4CC(C3)CC2C4)C1c1ccc(Cl)cc1 (stereo not shown) [Example 22, 1-(adamantan-2-yl)-3,3-dimethyl-4-(4-chlorophenyl)azetidin-2-one] | 0.0095 | 15 | 0.66
6 | COc1ccc(C2N(C3C4CC5CC(C4)CC3C5)C(=O)C2(C)C)cc1 (stereo not shown) [Example 23, 1-(adamantan-2-yl)-3,3-dimethyl-4-(4-methoxyphenyl)azetidin-2-one] | 0.01 | > 30 | –
7 | CC1(C)C(=O)N(C2C3CC4CC(C3)CC2C4)C1c1ccccc1C(F)(F)F (stereo not shown) [Example 41, 1-(adamantan-2-yl)-3,3-dimethyl-4-(2-trifluoromethylphenyl)azetidin-2-one] | 0.0087 | 3 to 30 | 0.079
8 | CC1(C)C(=O)N(C2C3CC4CC(C3)CC2C4)C1c1ccc(F)c(Cl)c1 (stereo not shown) [Example 29, 1-(adamantan-2-yl)-3,3-dimethyl-4-(3-chloro-4-fluorophenyl)azetidin-2-one] | 0.011 | > 30 | 0.59
9 | CC1(C)C(=O)N(C2C3CC4CC(C3)CC2C4)C1Cc1ccccc1 (stereo not shown) [Example 69, 4-benzyl-1-(adamantan-2-yl)-3,3-dimethylazetidin-2-one] | 0.02 | 0.28 | 0.0051
10 | CC1(C)C(=O)N(C2C3CC4CC(C3)CC2C4)C1c1ccccc1 (stereo not shown) [Example 1, 1-(adamantan-2-yl)-3,3-dimethyl-4-phenylazetidin-2-one] | 0.013 | 3 to 30 | 0.077
11 | CC1(C)C(=O)N(C2C3CC4CC(C3)CC2C4)C1c1cccc(F)c1F (stereo not shown) [Example 24, 1-(adamantan-2-yl)-3,3-dimethyl-4-(2,3-difluorophenyl)azetidin-2-one] | 0.011 | > 30 | 0.1
12 | COc1ccccc1C1N(C2C3CC4CC(C3)CC2C4)C(=O)C1(C)C (stereo not shown) [Example 33, 1-(adamantan-2-yl)-3,3-dimethyl-4-(2-methoxyphenyl)azetidin-2-one] | 0.0067 | 6.7 | 0.072
13 | CC1(C)C(=O)N(C2C3CC4CC(C3)CC2C4)C1C1(c2ccc(Cl)cc2)CC1 (stereo not shown) [Example 70, 4-[1-(4-chlorophenyl)cyclopropyl]-1-(adamantan-2-yl)-3,3-dimethylazetidin-2-one] | 0.11 | 4.1 | 0.0078
14 | CC1(C)C(=O)N(C2C3CC4CC(C3)CC2C4)C1c1cc(F)cc(F)c1F (stereo not shown) [Example 35, 1-(adamantan-2-yl)-3,3-dimethyl-4-(2,3,5-trifluorophenyl)azetidin-2-one] | 0.053 | > 30 | 0.61
15 | CC1(C)C(=O)N([C@H]2C3CC4CC2C[C@](C(=O)O)(C4)C3)C1c1cccc2c1OCO2 (stereo partly drawn) [Example 14, trans-4-[2-(benzo[d][1,3]dioxol-4-yl)-3,3-dimethyl-4-oxoazetidin-1-yl]-1-adamantane carboxylic acid] | 0.013 | – | 0.0095
16 | CC1(C)C(=O)N(C2C3CC4CC(C3)CC2C4)C1c1ccccc1F (stereo not shown) [Example 39, 1-(adamantan-2-yl)-3,3-dimethyl-4-(2-fluorophenyl)azetidin-2-one] | 0.0034 | 3 to 30 | 0.055
17 | CC1(C)C(=O)N(C2C3CC4CC(C3)CC2C4)C1c1cc(Cl)cc(Cl)c1 (stereo not shown) [Example 31, 1-(adamantan-2-yl)-3,3-dimethyl-4-(3,5-dichlorophenyl)azetidin-2-one] | 0.015 | – | 0.076
18 | CC(C)(C)c1ccc(C2N(C3C4CC5CC(C4)CC3C5)C(=O)C2(C)C)cc1 (stereo not shown) [Example 38, 1-(adamantan-2-yl)-3,3-dimethyl-4-(4-t-butylphenyl)azetidin-2-one] | 0.079 | 3 to 30 | –
19 | COc1ccc(C2N(C3C4CC5CC(C4)CC3C5)C(=O)C2(C)C)c(F)c1 (stereo not shown) [Example 40, 1-(adamantan-2-yl)-3,3-dimethyl-4-(2-fluoro-4-methoxyphenyl)azetidin-2-one] | 0.0059 | > 30 | 0.34
20 | COc1cccc(C2N(C3C4CC5CC(C4)CC3C5)C(=O)C2(C)C)c1 (stereo not shown) [Example 34, 1-(adamantan-2-yl)-3,3-dimethyl-4-(3-methoxyphenyl)azetidin-2-one] | 0.012 | – | 0.031
21 | CC1(C)C(=O)N(C2C3CC4CC(C3)CC2C4)C1c1cccc(C(F)(F)F)c1F (stereo not shown) [Example 28, 1-(adamantan-2-yl)-3,3-dimethyl-4-(2-fluoro-3-trifluoromethylphenyl)azetidin-2-one] | 0.029 | – | 0.16
22 | CC1(C)C(=O)N([C@H]2C3CC4CC2C[C@](F)(C4)C3)C1c1cccc(Cl)c1Cl (stereo partly drawn) [Example 52, trans-1-(5-fluoroadamantan-2-yl)-3,3-dimethyl-4-(2,3-dichlorophenyl)azetidin-2-one] | 0.0046 | – | 0.027
23 | CC1(C)C(=O)N(C2C3CC4CC(C3)CC2C4)C1c1cccc(Cl)c1F (stereo not shown) [Example 25, 1-(adamantan-2-yl)-3,3-dimethyl-4-(3-chloro-2-fluorophenyl)azetidin-2-one] | 0.02 | – | 0.18
24 | CC1(C)C(=O)N(C2C3CC4CC(C3)CC2C4)C1c1cccc(Cl)c1 (stereo not shown) [Example 53, 1-(adamantan-2-yl)-3,3-dimethyl-4-(3-chlorophenyl)azetidin-2-one] | 0.0039 | – | 0.025
